Test results reported in ChEMBL document CHEMBL5390209, “Spinosyn A and Its Derivative Inhibit Colorectal Cancer Cell Growth via the EGFR Pathway” (J Nat Prod, 2023).
Active and inactive are the calls of the source. The calls are words filed in the database; no cut-off is given here.

Assays:
[1] = target: Epidermal growth factor receptor (Homo sapiens) (UniProt P00533); test: Inhibition of EGFR in human HT-29 cells assessed as reduction in ratio of p-EGFR/EGFR level at 15 uM measured after 3 to 15 hrs by Western blotting analysis; assay type: cell-based; details: time 3-15 hrs
[2] = target: Epidermal growth factor receptor (Homo sapiens) (UniProt P00533); test: Inhibition of EGFR in human HT-29 cells assessed as reduction in Erk1/2 phosphorylation level at 15 uM by Western blot analysis; assay type: cell-based; details: time 3-15 hrs, TDE = time-dependent effect
[3] = target: Epidermal growth factor receptor (Homo sapiens) (UniProt P00533); test: Inhibition of EGFR in human SW480 cells assessed as reduction in Erk1/2 phosphorylation level at 3.75 to 15 uM incubated for 24 hrs by Western blot analysis; assay type: cell-based; details: dose 3.75-15 µM
[4] = target: Receptor tyrosine-protein kinase erbB-2 (Homo sapiens) (UniProt P04626); test: Inhibition of HER2 in human HT-29 cells at 15 uM by Western blot analysis; assay type: cell-based; details: time 3-15 hrs, TDE = time-dependent effect
[5] = system: HT-29; test: Inhibition of HER2 in human HT-29 cells xenografted in BALB/c nude mouse assessed as reduction in HER2 protein expression level at 5 mg/kg/day, ip administrated for every other day and measured after 28 days by immunohistochemistry staining based analysis; assay type: functional, organism-based; details: time 28.0 day
[6] = target: Epidermal growth factor receptor (Homo sapiens) (UniProt P00533); test: Inhibition of EGFR in human HT-29 cells assessed as reduction in Erk1/2 phosphorylation level at 3.75 to 15 uM incubated for 24 hrs by Western blotting analysis; assay type: cell-based; details: dose 3.75-15 µM
[7] = system: HT-29; test: Antitumor activity against human HT-29 cells xenografted Balb/c mouse assessed as reduction in tumor growth at 2.5 mg/kg/day, ip administrated for every other day and measured after 28 days; assay type: functional, organism-based; details: time 28.0 day
[8] = target: Epidermal growth factor receptor (Homo sapiens) (UniProt P00533); test: Inhibition of EGFR in human HT-29 cells assessed as reduction in STAT3 phosphorylation level at 2 uM by Western blotting analysis; assay type: cell-based; details: time 3-15 hrs, TDE = time-dependent effect
[9] = system: SW480; test: Inhibition of colony formation in EGFR knockdown human SW480 cells at 0.75 uM incubated for 14 days by crystal violet staining based colony formation assay; assay type: functional, cell-based; details: time 14.0 day
[10] = system: HT-29; test: Inhibition of HER2 in human HT-29 cells xenografted in BALB/c nude mouse assessed as reduction in HER2 protein expression level at 2.5 mg/kg/day, ip administrated for every other day and measured after 28 days by immunohistochemistry staining based analysis; assay type: functional, organism-based; details: time 28.0 day
[11] = system: HT-29; test: Inhibition of EGFR in human HT-29 cells xenografted in BALB/c nude mouse assessed as reduction in EGFR protein expression level at 2.5 mg/kg/day, ip administrated for every other day and measured after 28 days by immunohistochemistry staining based analysis; assay type: functional, organism-based; details: time 28.0 day
[12] = target: Epidermal growth factor receptor (Homo sapiens) (UniProt P00533); test: Inhibition of EGFR in human HT-29 cells assessed as reduction in STAT3 phosphorylation level at 0.5 to 2 uM incubated for 24 hrs by Western blot analysis; assay type: cell-based; details: dose 0.5-2 µM
[13] = system: SW480; test: Inhibition of colony formation in double EGFR/HER2 knockdown human SW480 cells at 0.75 uM incubated for 14 days by crystal violet staining based colony formation assay; assay type: functional, cell-based; details: time 14.0 day
[14] = Toxicity in human HT-29 cells xenografted Balb/c mouse assessed as change in liver pathology at 2.5 mg/kg/day, ip administrated for every other day and measured after 28 days; assay type: organism-based; details: in vivo, 672 h, time 28 day
[15] = Toxicity in human HT-29 cells xenografted Balb/c mouse assessed as change in spleen pathology at 2.5 mg/kg/day, ip administrated for every other day and measured after 28 days; assay type: organism-based; details: in vivo, 672 h, time 28 day

Chain of Epidermal growth factor receptor (Homo sapiens) (P00533 whole entry): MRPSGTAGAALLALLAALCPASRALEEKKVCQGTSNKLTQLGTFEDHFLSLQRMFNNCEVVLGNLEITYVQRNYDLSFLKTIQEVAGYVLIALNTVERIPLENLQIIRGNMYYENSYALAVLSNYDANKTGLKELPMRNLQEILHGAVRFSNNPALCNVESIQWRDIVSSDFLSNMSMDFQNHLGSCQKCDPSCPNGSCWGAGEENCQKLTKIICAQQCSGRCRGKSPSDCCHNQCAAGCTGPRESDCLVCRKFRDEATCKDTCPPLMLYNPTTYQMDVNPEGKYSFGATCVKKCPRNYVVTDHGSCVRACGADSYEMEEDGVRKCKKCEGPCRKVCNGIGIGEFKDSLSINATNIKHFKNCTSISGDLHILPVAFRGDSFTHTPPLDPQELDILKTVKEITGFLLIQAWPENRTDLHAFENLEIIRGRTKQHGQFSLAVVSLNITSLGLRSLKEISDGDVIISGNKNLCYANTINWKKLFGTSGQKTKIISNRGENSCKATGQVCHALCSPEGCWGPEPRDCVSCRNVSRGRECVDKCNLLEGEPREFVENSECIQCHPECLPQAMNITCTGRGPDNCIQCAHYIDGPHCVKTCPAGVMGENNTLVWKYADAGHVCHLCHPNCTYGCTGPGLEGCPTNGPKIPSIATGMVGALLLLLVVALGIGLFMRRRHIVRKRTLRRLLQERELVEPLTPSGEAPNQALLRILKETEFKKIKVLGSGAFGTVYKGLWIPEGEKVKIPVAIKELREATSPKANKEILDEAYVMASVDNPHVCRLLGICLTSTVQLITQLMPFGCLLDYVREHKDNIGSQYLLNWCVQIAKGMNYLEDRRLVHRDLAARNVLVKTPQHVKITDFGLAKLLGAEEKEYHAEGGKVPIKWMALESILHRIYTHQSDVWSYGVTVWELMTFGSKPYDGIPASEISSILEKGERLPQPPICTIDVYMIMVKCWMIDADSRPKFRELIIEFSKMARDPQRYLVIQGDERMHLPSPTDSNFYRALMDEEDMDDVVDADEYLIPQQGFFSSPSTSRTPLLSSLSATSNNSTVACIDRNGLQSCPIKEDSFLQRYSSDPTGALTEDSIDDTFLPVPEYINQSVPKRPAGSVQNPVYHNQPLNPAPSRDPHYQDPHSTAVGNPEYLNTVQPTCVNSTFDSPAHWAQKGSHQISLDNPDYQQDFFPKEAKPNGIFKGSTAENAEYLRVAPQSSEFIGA
Chain of Receptor tyrosine-protein kinase erbB-2 (Homo sapiens) (P04626 whole entry): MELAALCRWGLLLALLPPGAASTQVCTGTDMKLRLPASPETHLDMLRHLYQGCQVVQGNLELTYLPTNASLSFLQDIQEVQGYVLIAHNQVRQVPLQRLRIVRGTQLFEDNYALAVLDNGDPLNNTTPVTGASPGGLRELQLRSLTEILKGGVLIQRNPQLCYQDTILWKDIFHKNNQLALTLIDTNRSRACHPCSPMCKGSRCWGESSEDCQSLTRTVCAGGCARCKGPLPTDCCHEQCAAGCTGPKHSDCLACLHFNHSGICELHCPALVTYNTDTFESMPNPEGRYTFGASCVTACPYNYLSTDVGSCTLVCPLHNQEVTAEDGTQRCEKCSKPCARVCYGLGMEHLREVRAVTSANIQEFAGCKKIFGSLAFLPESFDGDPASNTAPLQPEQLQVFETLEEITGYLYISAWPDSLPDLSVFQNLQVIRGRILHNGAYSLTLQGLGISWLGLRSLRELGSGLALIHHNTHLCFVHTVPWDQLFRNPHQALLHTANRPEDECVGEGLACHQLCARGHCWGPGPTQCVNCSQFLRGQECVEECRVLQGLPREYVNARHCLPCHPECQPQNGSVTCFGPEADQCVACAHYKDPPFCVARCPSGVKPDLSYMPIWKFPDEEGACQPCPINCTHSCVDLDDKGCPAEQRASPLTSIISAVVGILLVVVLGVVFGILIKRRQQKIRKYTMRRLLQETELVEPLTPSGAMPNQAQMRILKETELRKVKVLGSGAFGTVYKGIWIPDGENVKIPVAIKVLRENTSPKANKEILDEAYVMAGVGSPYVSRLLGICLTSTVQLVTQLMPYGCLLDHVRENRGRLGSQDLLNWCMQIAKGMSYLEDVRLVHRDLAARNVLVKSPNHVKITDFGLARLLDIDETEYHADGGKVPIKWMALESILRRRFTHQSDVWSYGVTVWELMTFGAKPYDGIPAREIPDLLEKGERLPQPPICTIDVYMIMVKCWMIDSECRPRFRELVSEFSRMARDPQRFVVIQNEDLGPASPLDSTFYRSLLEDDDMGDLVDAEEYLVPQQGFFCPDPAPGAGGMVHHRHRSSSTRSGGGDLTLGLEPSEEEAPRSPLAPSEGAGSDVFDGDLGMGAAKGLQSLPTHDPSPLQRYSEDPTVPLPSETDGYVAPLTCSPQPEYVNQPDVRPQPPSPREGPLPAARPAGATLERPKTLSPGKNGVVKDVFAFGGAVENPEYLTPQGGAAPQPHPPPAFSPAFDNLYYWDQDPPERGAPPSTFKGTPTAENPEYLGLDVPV

## CC[C@H]1CCC[C@H](O[C@H]2CC[C@H](N(C)C)[C@@H](C)O2)[C@@H](C)C(=O)C2=C[C@@H]3[C@@H](C=C[C@@H]4C[C@@H](O[C@@H]5O[C@@H](C)[C@H](OC)[C@@H](OC)[C@H]5OC)C[C@@H]34)[C@@H]2CC(=O)O1 [SPINOSYN A]
[1]
  inhibition: Active
[2]
  inhibition: Tde
[3]
  inhibition: Active
[4]
  inhibition: Tde
[5]
  inhibition: Active
[6]
  inhibition: Active

## CC[C@H]1CCC[C@H](O[C@H]2CC[C@H](N(C)CC(O)CN3CCNCC3)[C@@H](C)O2)[C@@H](C)C(=O)C2=C[C@@H]3[C@@H](C=C[C@@H]4C[C@@H](O[C@@H]5O[C@@H](C)[C@H](OC)[C@@H](OC)[C@H]5OC)C[C@@H]34)[C@@H]2CC(=O)O1 (stereo not given in full)
[7]
  Activity: Active
[8]
  inhibition: Tde
[9]
  Activity: inactive
[10]
  inhibition: Active
[11]
  inhibition: Active
[12]
  inhibition: Active
[13]
  Activity: inactive
[14]
  Activity: Non-Toxic
[15]
  Activity: Non-Toxic
